Experimental data reported in BindingDB's records for doi:10.1124/jpet.106.103382 (Wyeth Research, 2006).

What was measured:
[1] = target: T1, Muscarinic acetylcholine receptor M4 (Homo sapiens, UniProt P08173)
T1 sequence (P08173 whole entry): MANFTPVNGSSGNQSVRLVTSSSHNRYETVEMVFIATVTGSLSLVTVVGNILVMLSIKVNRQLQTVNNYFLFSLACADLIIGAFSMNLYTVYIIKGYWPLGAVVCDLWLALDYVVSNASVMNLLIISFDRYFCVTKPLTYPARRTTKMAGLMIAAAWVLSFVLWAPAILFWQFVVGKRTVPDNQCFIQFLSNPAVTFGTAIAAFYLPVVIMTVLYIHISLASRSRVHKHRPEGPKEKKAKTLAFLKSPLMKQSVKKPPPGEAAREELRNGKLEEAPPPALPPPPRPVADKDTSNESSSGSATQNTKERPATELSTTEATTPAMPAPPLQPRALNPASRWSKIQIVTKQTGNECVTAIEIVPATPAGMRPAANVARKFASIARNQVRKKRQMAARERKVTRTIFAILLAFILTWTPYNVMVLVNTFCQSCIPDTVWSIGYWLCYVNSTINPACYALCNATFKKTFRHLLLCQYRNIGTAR

[2] = target: D(1A) dopamine receptor (Homo sapiens, UniProt P21728)
D(1A) dopamine receptor, sequence (P21728 whole entry): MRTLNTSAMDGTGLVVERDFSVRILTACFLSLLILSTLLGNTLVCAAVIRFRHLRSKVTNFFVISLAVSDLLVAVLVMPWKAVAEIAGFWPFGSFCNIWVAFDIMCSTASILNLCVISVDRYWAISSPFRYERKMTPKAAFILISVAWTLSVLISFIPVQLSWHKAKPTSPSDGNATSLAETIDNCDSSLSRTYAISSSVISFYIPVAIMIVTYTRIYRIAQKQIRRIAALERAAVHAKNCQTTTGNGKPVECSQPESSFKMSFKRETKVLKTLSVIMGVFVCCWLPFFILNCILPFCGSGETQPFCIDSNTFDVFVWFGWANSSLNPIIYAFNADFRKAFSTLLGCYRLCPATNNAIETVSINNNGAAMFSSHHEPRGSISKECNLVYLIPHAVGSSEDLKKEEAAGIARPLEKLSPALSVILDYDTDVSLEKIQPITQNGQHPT

[3] = target: Cannabinoid receptor 1 (Homo sapiens, UniProt P21554)
Cannabinoid receptor 1, sequence (P21554 whole entry): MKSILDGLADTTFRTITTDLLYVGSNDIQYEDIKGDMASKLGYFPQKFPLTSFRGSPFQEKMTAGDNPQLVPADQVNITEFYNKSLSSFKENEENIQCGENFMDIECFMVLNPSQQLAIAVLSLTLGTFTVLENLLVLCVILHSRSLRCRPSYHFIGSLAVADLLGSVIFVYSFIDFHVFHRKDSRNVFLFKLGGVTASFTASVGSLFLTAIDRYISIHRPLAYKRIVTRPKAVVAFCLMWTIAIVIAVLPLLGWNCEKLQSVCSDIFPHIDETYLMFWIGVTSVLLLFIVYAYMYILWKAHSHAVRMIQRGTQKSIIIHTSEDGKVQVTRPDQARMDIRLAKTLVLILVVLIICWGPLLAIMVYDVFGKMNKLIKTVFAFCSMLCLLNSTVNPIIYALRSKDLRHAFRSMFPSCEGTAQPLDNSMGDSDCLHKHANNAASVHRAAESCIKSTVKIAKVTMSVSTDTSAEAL

[4] = target: T2, Muscarinic acetylcholine receptor M1 (Homo sapiens, UniProt P11229)
T2 sequence (P11229 whole entry): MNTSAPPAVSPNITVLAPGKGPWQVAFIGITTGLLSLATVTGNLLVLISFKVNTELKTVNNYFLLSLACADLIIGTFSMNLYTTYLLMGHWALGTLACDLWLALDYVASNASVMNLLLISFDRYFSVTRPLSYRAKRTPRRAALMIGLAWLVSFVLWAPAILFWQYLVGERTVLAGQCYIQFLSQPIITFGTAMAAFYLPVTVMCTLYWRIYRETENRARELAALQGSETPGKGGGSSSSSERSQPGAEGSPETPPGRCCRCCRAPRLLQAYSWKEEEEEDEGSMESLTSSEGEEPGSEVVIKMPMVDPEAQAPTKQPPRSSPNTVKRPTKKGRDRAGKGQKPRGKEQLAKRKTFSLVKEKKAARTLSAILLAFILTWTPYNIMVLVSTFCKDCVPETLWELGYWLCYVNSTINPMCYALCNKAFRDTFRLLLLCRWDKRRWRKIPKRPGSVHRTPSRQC

[5] = target: Cannabinoid receptor 2 (Homo sapiens, UniProt P34972)
Cannabinoid receptor 2, sequence (P34972 whole entry): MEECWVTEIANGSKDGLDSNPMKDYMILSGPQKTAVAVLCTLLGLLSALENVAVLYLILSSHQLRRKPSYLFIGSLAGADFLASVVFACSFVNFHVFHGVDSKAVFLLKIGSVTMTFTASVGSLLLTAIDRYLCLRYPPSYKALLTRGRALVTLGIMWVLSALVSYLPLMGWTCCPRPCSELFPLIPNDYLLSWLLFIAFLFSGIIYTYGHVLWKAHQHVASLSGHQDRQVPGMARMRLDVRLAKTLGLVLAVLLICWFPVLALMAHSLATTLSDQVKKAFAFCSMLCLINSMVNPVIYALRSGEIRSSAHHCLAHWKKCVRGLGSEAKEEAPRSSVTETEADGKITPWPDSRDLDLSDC

[6] = target: Muscarinic acetylcholine receptor M3 (Homo sapiens, UniProt P20309)
Muscarinic acetylcholine receptor M3, sequence (P20309 whole entry): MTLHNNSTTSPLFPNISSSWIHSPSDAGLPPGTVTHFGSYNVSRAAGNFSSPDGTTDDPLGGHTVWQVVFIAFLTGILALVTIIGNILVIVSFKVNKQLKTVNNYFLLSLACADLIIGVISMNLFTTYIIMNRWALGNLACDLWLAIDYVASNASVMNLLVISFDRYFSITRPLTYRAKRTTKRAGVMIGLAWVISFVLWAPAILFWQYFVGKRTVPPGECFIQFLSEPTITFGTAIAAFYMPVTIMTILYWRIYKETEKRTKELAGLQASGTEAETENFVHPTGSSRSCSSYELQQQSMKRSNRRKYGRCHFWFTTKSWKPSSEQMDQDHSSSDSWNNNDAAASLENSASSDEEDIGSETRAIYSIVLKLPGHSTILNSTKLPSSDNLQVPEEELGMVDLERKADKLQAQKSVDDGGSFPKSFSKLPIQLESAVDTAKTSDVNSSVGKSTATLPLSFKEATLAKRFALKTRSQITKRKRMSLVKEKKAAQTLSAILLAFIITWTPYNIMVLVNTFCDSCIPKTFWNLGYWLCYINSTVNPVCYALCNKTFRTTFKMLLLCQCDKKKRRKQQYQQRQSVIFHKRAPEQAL

[7] = target: T3, Muscarinic acetylcholine receptor M2 (Homo sapiens, UniProt P08172)
T3 sequence (P08172 whole entry): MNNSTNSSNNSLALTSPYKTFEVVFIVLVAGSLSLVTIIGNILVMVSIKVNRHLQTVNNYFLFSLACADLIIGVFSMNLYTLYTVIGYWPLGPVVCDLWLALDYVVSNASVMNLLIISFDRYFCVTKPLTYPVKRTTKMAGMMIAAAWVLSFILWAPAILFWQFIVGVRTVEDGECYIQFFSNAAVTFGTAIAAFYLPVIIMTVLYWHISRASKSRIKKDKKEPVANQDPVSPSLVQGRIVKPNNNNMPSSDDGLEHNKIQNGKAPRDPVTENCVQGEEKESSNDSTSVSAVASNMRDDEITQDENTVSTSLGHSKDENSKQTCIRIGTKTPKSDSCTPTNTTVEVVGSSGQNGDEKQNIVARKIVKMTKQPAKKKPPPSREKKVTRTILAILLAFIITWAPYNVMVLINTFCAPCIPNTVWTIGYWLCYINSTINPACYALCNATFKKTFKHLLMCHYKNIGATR

[8] = target: T4, Muscarinic acetylcholine receptor M5 (Homo sapiens, UniProt P08912)
T4 sequence (P08912 whole entry): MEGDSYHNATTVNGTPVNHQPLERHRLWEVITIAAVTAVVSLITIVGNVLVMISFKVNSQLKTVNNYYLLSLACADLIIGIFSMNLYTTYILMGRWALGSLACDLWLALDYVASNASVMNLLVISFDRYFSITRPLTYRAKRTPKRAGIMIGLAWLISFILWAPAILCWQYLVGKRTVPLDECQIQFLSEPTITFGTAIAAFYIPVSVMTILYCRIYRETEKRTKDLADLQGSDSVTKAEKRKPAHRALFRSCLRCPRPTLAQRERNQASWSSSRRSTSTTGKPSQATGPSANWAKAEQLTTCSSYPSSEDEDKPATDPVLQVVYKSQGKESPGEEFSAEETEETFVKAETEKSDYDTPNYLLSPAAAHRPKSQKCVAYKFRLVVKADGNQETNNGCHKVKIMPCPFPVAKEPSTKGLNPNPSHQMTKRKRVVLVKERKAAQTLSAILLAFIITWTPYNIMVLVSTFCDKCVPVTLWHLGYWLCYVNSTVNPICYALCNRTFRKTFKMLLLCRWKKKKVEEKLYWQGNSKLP

[9] = target: Histamine H2 receptor (Homo sapiens) (UniProt P25021)
Histamine H2 receptor (Homo sapiens), sequence (P25021 whole entry, looked up): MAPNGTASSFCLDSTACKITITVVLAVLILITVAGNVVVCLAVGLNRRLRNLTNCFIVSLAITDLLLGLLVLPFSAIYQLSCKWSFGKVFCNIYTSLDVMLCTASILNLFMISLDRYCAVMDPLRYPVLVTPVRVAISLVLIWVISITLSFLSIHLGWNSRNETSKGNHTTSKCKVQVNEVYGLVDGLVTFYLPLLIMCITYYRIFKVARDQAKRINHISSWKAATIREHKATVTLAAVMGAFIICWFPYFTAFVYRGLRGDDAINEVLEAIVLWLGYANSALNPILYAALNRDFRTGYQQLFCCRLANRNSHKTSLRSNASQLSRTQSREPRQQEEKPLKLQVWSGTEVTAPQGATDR

[10] = target: T5, Adenosine receptor A1 (Homo sapiens, UniProt P30542)
T5 sequence (P30542 whole entry): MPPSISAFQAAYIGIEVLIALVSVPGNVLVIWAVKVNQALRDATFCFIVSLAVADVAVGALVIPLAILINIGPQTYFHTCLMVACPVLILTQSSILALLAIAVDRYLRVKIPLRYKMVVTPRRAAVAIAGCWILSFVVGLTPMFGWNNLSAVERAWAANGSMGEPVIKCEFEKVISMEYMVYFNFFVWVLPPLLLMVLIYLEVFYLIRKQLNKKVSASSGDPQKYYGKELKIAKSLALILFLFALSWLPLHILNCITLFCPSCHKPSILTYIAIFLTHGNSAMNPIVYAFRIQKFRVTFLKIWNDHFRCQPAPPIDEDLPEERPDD

[11] = target: D(3) dopamine receptor (Homo sapiens) (UniProt P35462)
D(3) dopamine receptor (Homo sapiens), sequence (P35462 whole entry, looked up): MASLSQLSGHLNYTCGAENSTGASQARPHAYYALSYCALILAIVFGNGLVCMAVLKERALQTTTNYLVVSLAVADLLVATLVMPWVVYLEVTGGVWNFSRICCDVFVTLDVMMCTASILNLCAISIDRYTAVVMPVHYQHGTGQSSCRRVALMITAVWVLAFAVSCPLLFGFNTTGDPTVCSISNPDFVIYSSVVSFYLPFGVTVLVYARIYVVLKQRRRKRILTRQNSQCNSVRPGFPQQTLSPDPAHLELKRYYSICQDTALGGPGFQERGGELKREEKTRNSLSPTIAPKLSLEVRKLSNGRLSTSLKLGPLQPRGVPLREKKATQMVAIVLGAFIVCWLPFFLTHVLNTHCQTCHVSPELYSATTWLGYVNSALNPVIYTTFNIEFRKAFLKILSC

[12] = target: D(2) dopamine receptor (Homo sapiens, UniProt P14416)
D(2) dopamine receptor, sequence (P14416 whole entry): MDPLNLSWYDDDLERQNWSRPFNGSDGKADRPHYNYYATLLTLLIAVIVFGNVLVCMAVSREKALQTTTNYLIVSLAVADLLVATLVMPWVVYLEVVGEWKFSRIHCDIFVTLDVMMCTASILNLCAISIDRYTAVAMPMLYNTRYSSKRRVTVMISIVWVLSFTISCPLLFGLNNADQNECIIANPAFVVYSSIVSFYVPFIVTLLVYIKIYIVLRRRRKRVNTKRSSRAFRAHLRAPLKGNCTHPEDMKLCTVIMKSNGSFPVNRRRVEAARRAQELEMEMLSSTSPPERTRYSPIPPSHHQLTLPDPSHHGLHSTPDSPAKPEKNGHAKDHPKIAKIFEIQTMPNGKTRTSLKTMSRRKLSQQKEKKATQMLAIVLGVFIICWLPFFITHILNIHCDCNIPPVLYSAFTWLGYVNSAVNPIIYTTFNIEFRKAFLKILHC

[13] = target: Histamine H1 receptor (Homo sapiens) (UniProt P35367)
Histamine H1 receptor (Homo sapiens), sequence (P35367 whole entry, looked up): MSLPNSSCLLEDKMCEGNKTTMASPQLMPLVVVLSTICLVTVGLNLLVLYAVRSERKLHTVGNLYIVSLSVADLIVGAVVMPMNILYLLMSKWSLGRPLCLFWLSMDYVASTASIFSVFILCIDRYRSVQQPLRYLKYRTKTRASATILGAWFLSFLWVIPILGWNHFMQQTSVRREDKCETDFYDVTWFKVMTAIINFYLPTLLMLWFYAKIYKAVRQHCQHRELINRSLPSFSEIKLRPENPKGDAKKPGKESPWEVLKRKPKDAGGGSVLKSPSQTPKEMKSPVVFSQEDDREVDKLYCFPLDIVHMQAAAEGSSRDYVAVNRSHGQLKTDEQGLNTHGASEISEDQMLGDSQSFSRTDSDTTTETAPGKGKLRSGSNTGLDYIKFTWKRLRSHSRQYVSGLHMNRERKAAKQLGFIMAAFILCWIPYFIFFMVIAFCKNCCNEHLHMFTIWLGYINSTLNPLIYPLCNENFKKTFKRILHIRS

[14] = target: T6, Adenosine receptor A2b (Bos taurus, UniProt Q1LZD0)
T6 sequence (Q1LZD0 whole entry): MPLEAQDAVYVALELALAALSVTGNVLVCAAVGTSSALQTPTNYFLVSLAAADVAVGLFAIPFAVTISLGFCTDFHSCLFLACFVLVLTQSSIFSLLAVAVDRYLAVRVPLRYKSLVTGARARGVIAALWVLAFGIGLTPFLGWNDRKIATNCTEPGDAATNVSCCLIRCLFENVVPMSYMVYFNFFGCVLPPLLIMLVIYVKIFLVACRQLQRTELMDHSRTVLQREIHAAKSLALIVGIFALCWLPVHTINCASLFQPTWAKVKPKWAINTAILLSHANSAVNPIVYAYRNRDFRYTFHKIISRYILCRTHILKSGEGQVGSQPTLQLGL

[15] = target: Transporter (Cavia porcellus, UniProt H0WCX4)
Transporter, sequence (H0WCX4 whole entry): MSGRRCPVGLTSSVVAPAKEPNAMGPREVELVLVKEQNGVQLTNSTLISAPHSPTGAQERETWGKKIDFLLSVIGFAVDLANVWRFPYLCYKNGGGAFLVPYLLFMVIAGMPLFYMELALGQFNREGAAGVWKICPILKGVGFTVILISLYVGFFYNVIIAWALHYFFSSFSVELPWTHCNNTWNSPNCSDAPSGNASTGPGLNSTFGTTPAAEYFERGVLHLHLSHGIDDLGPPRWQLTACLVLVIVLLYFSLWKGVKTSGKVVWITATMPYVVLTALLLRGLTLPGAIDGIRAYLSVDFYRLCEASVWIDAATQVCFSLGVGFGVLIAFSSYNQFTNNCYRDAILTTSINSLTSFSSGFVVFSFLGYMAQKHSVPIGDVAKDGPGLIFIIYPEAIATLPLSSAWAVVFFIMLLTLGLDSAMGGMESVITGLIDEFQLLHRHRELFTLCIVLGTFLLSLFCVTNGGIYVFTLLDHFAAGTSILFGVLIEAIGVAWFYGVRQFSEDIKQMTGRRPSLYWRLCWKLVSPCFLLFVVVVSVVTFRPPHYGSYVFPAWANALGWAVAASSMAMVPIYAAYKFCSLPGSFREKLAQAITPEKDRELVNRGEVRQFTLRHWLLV

[16] = target: Histamine H3 receptor (Homo sapiens) (UniProt Q9Y5N1)
Histamine H3 receptor (Homo sapiens), sequence (Q9Y5N1 whole entry, looked up): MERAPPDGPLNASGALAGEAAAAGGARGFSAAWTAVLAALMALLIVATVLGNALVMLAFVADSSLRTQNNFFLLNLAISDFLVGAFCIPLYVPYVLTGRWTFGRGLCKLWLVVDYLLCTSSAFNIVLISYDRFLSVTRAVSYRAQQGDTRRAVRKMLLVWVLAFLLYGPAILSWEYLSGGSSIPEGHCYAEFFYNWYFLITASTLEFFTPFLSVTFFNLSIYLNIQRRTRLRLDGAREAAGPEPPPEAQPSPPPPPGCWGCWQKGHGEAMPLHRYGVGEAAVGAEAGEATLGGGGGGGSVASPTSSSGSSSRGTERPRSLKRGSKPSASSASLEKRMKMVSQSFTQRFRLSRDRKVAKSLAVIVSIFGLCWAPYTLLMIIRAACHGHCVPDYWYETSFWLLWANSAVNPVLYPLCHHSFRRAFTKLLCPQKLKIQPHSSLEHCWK

Measured: IC50

CN(C)CC(c1ccc(O)cc1)C1(O)CCCCC1 (stereo unspecified) [CAS_386750-22-7]
> 10 µM: all assays above
